Consider 17 compounds from ChEMBL document CHEMBL4417631, “Oral peptide inhibitors of interleukin-23 receptor and their use to treat inflammatory bowel diseases” (2017).

Where a SMILES comes first, the peptide text is derived from it. [ ]: non-standard residue; d: D form. hLeu = CC(C)CC[C@H](N)C(=O)O Bounds are passed on as bounds.

In the assay the target is T1, Interleukin-23 receptor (Homo sapiens, UniProt Q5VWK5).
T1 sequence (Q5VWK5 whole entry): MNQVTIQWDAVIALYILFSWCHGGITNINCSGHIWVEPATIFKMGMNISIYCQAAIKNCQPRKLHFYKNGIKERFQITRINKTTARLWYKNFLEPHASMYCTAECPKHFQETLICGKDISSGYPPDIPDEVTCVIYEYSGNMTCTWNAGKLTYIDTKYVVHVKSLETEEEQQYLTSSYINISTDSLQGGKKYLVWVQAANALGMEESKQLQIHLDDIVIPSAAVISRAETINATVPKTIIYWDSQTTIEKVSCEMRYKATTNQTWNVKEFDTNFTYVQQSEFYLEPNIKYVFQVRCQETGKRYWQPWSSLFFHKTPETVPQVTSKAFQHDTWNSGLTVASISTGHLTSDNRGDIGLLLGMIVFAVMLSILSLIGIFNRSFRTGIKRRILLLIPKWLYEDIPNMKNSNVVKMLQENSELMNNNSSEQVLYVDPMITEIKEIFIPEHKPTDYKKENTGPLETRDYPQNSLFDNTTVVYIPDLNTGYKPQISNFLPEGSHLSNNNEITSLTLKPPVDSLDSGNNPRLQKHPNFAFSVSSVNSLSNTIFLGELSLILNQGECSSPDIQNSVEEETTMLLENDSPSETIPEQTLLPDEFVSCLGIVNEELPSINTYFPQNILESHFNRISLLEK
Description: Inhibition of interleukin-23 binding to human interleukin-23 receptor incubated for 2 hrs by competitive binding ELISA.

As to `CC(=O)N[C@@H](CS)C(=O)N[C@@H](C)C(=O)N[C@@H](CC(=O)O)C(=O)N[C@@H](Cc1c[nH]c2ccccc12)C(=O)N[C@H](C(=O)N[C@@H](CS)C(=O)N[C@@H](Cc1ccc(O)cc1)C(=O)N[C@@H](Cc1c[nH]c2ccccc12)C(=O)N[C@@H](Cc1cnc[nH]1)C(=O)N[C@H](C(=O)N[C@@H](CCCCN)C(=O)NCC(=O)O)[C@@H](C)O)C(C)C`, the IC50 is > 1 µM.

Take `CC(=O)N[C@@H](CS)C(=O)N[C@@H](CCC(N)=O)C(=O)N[C@H](C(=O)N[C@@H](Cc1c[nH]c2ccccc12)C(=O)N[C@@H](CCC(N)=O)C(=O)N[C@@H](CS)C(=O)N[C@@H](Cc1ccc(O)cc1)C(=O)N[C@@H](Cc1c[nH]c2ccccc12)C(=O)N(C)[C@@H](CCCNC(=N)N)C(=O)N[C@@H](CCC(=O)O)C(=O)N[C@@H](CC(N)=O)C(=O)NCC(=O)NCCOCC(=O)N[C@H](CCCCN)C(N)=O)[C@@H](C)O`: the IC50 is > 1 µM.

`CC(=O)N[C@@H](CS)C(=O)N[C@@H](CCC(N)=O)C(=O)N[C@H](C(=O)N1CCC[C@H]1C(=O)N[C@@H](CCC(N)=O)C(=O)N[C@@H](CS)C(=O)N[C@@H](Cc1ccc(O)cc1)C(=O)N[C@@H](Cc1c[nH]c2ccccc12)C(=O)N[C@@H](CCC(C)C)C(=O)N[C@@H](CCC(=O)O)C(=O)N[C@@H](CC(N)=O)C(=O)NCC(N)=O)[C@@H](C)O` (Ac-CQTPQCYW[hLeu]ENG-NH2): the half-maximal inhibitory concentration (IC50) was > 10 µM.

On to `CC(=O)N[C@@H](CS)C(=O)N[C@@H](CCC(N)=O)C(=O)N[C@H](C(=O)N[C@@H](Cc1c[nH]c2ccccc12)C(=O)N[C@@H](CCC(N)=O)C(=O)N[C@@H](CS)C(=O)N[C@@H](Cc1ccc(O)cc1)C(=O)N[C@@H](Cc1c[nH]c2ccccc12)C(=O)N1CCC[C@H]1C(=O)N[C@@H](CCC(=O)O)C(=O)N[C@@H](CC(N)=O)C(=O)NCC(N)=O)[C@@H](C)O`, for which the IC50 was > 30 µM.

As to `CC(=O)N[C@@H](CS)C(=O)N[C@@H](CCCNC(=N)N)C(=O)N[C@@H](CC(=O)O)C(=O)N[C@@H](Cc1c[nH]c2ccccc12)C(=O)N[C@@H](CCC(N)=O)C(=O)N[C@@H](CS)C(=O)N[C@@H](Cc1ccc(O)cc1)C(=O)N[C@@H](Cc1c[nH]c2ccccc12)C(=O)N[C@@H](CCCNC(=N)N)C(=O)N[C@H](CCCCN)C(=O)N[C@@H](Cc1ccccc1)C(=O)NCC(=O)NCCOCCC(=O)N[C@H](CCCCN)C(N)=O`, the IC50 was > 1 µM.

As to `CC(=O)N[C@@H](CS)C(=O)N[C@@H](CCC(N)=O)C(=O)N[C@H](C(=O)N[C@@H](Cc1c[nH]c2ccccc12)C(=O)N[C@@H](CCC(N)=O)C(=O)N[C@@H](CS)C(=O)N[C@@H](Cc1ccc(O)cc1)C(=O)N[C@@H](Cc1c[nH]c2ccccc12)C(=O)N[C@@H](CCCNC(=N)N)C(=O)N[C@H](C(=O)N[C@@H](CC(N)=O)C(=O)NCC(=O)NCCOCC(=O)N[C@H](CCCCN)C(N)=O)[C@@H](C)O)[C@@H](C)O`, the IC50 was < 0.5 µM.

For the compound `CC(=O)NCCCC[C@H](NC(=O)[C@](C)(CCCCN)NC(=O)[C@H](Cc1ccc2ccccc2c1)NC(=O)[C@@H](NC(=O)[C@H](CCC(N)=O)NC(=O)[C@H](Cc1c[nH]c2ccccc12)NC(=O)[C@@H](NC(=O)[C@H](CCC(N)=O)NC(=O)[C@@H](NC(C)=O)C(C)(C)S)[C@@H](C)O)C(C)(C)S)C(=O)N[C@@H](CC(N)=O)C(=O)NCC(N)=O`, the half-inhibitory concentration (IC50) was > 10 µM.

The compound `CC(=O)N[C@@H](CS)C(=O)N[C@@H](C)C(=O)N[C@@H](CC(=O)O)C(=O)N[C@@H](Cc1c[nH]c2ccccc12)C(=O)N[C@H](C(=O)N[C@@H](CS)C(=O)N[C@@H](Cc1ccc(O)cc1)C(=O)N[C@@H](Cc1c[nH]c2ccccc12)C(=O)N[C@@H](Cc1cnc[nH]1)C(=O)N[C@@H](CCC(=O)O)C(=O)N[C@@H](Cc1cnc[nH]1)C(=O)N[C@@H](CO)C(=O)N[C@@H](CCC(=O)O)C(=O)N[C@@H](CCCNC(=N)N)C(=O)N[C@H](C(=O)NCC(N)=O)C(C)C)C(C)C` (Ac-CADWVCYWHEHSERVG-NH2) came in with an IC50 of 0.5 to 1 µM.

With `CC(=O)N[C@@H](CS)C(=O)N[C@@H](C)C(=O)N[C@@H](CC(=O)O)C(=O)N[C@@H](Cc1c[nH]c2ccccc12)C(=O)N[C@H](C(=O)N[C@@H](CS)C(=O)N[C@@H](Cc1ccc(O)cc1)C(=O)N[C@@H](Cc1c[nH]c2ccccc12)C(=O)N[C@@H](Cc1cnc[nH]1)C(=O)N[C@H](C(=O)N[C@@H](CCCCNC(=O)COCC(=O)NCCCC[C@H](NC(=O)[C@@H](NC(=O)[C@H](Cc1cnc[nH]1)NC(=O)[C@H](Cc1c[nH]c2ccccc12)NC(=O)[C@H](Cc1ccc(O)cc1)NC(=O)[C@H](CS)NC(=O)[C@@H](NC(=O)[C@H](Cc1c[nH]c2ccccc12)NC(=O)[C@H](CC(=O)O)NC(=O)[C@H](C)NC(=O)[C@H](CS)NC(C)=O)C(C)C)[C@@H](C)O)C(=O)NCC(=O)O)C(=O)NCC(=O)O)[C@@H](C)O)C(C)C`, the IC50 lay within 1 to 10 µM.

With `CC(=O)N[C@@H](CS)C(=O)N[C@@H](C)C(=O)N[C@@H](CC(=O)O)C(=O)N[C@@H](Cc1c[nH]c2ccccc12)C(=O)N[C@H](C(=O)N[C@@H](CS)C(=O)N[C@@H](Cc1ccc(O)cc1)C(=O)N[C@@H](Cc1c[nH]c2ccccc12)C(=O)N[C@@H](CCCCN)C(=O)N[C@H](C(=O)N[C@@H](Cc1ccccc1)C(=O)NCC(=O)O)[C@@H](C)O)C(C)C`, the IC50 is > 1 µM.

As for `CC(=O)N[C@@H](CS)C(=O)N[C@@H](CCC(N)=O)C(=O)N[C@H](C(=O)N[C@@H](CCCNC(=N)N)C(=O)N[C@@H](CCC(N)=O)C(=O)N[C@@H](CS)C(=O)N[C@@H](Cc1ccc(O)cc1)C(=O)N[C@@H](Cc1c[nH]c2ccccc12)C(=O)N[C@@H](CCC(C)C)C(=O)N[C@@H](CCC(=O)O)C(=O)N[C@@H](CC(N)=O)C(=O)NCC(N)=O)[C@@H](C)O` (Ac-CQTRQCYW[hLeu]ENG-NH2), the IC50 is > 10 µM.

With `CC(=O)N[C@@H](CS)C(=O)N[C@@H](CCC(N)=O)C(=O)N[C@H](C(=O)N[C@@H](Cc1c[nH]c2ccccc12)C(=O)N[C@@H](CCC(N)=O)C(=O)N[C@@H](CS)C(=O)N[C@@H](Cc1ccc(O)cc1)C(=O)N[C@@H](Cc1c[nH]c2ccccc12)C(=O)N[C@H](CCCNC(=N)N)C(=O)N[C@H](CCC(=O)O)C(=O)N[C@@H](CC(N)=O)C(=O)NCC(=O)NCCOCC(=O)N[C@H](CCCCN)C(N)=O)[C@@H](C)O`, the IC50 was > 1 µM.

Regarding `CC(=O)N[C@@H](CS)C(=O)N[C@@H](CCC(N)=O)C(=O)N[C@H](C(=O)N[C@@H](CCC(=O)O)C(=O)N[C@@H](CCC(N)=O)C(=O)N[C@@H](CS)C(=O)N[C@@H](Cc1ccc(O)cc1)C(=O)N[C@@H](Cc1c[nH]c2ccccc12)C(=O)N[C@@H](CCC(C)C)C(=O)N[C@@H](CCC(=O)O)C(=O)N[C@@H](CC(N)=O)C(=O)NCC(N)=O)[C@@H](C)O` (Ac-CQTEQCYW[hLeu]ENG-NH2), the concentration for half-maximal inhibition (IC50) is > 10 µM.

Compound `CC(=O)N[C@@H](CS)C(=O)N[C@@H](CCCCN)C(=O)N[C@H](C(=O)N[C@@H](Cc1c[nH]c2ccccc12)C(=O)N[C@@H](CCC(N)=O)C(=O)N[C@@H](CS)C(=O)N[C@@H](Cc1ccc(O)cc1)C(=O)N[C@@H](Cc1c[nH]c2ccccc12)C(=O)N[C@@H](CCCNC(=N)N)C(=O)N[C@H](C(=O)N[C@@H](Cc1ccccc1)C(=O)NCC(=O)NCCOCC(=O)N[C@H](CCCCN)C(N)=O)C(C)C)[C@@H](C)O` showed an IC50 of 0.04 µM.

As to `C[C@@H](O)[C@H](NC(=O)[C@@H](N)CS)C(=O)N[C@@H](CC(=O)O)C(=O)N[C@@H](Cc1c[nH]c2ccccc12)C(=O)N[C@@H](CCCCN)C(=O)N[C@@H](CS)C(=O)N[C@@H](Cc1ccc(O)cc1)C(=O)N[C@@H](Cc1c[nH]c2ccccc12)C(=O)N[C@@H](Cc1cnc[nH]1)C(=O)N[C@@H](CCC(=O)O)C(=O)N[C@@H](Cc1ccccc1)C(=O)NCC(N)=O` (H-CTDWKCYWHEFG-NH2), the IC50 is 0.5 to 1 µM.

For `CC(=O)N[C@@H](CS)C(=O)N[C@@H](C)C(=O)N[C@@H](CC(=O)O)C(=O)N[C@@H](Cc1c[nH]c2ccccc12)C(=O)N[C@H](C(=O)N[C@@H](CS)C(=O)N[C@@H](Cc1ccc(O)cc1)C(=O)N[C@@H](Cc1cc(F)cc(F)c1)C(=O)N[C@@H](CCCN)C(=O)N[C@@H](CN)C(=O)N[C@@H](Cc1ccccc1)C(=O)NCC(=O)NCCOCC(=O)N[C@H](CCCCN)C(N)=O)C(C)C`, the concentration for half-maximal inhibition (IC50) was 6 µM.

For the compound `CC(=O)N[C@@H](CS)C(=O)N[C@@H](C)C(=O)N[C@@H](CC(=O)O)C(=O)N[C@@H](Cc1c[nH]c2ccccc12)C(=O)N[C@H](C(=O)N[C@@H](CS)C(=O)N[C@@H](Cc1ccc(O)cc1)C(=O)N[C@@H](Cc1c[nH]c2ccccc12)C(=O)N[C@@H](Cc1cnc[nH]1)C(=O)N[C@H](C(=O)N[C@@H](Cc1ccccc1)C(=O)N[C@@H](CC(=O)O)C(=O)N[C@@H](CCCCNC(=O)COCC(=O)NCCCC[C@H](NC(=O)[C@H](CC(=O)O)NC(=O)[C@H](Cc1ccccc1)NC(=O)[C@@H](NC(=O)[C@H](Cc1cnc[nH]1)NC(=O)[C@H](Cc1c[nH]c2ccccc12)NC(=O)[C@H](Cc1ccc(O)cc1)NC(=O)[C@H](CS)NC(=O)[C@@H](NC(=O)[C@H](Cc1c[nH]c2ccccc12)NC(=O)[C@H](CC(=O)O)NC(=O)[C@H](C)NC(=O)[C@H](CS)NC(C)=O)C(C)C)[C@@H](C)O)C(=O)O)C(=O)O)[C@@H](C)O)C(C)C`, the IC50 was > 10 µM.
